Source: patent US10907191B2, “Method for measuring activity of oxidoreductase” (NATIONAL AGRICULTURE AND FOOD RESEARCH ORGANIZATION, priority 2016, dated 2021)

Molecular target: T1, HAO derived from Nitrosomonas europaea (Nitrosomonas europaea, UniProt Q50925)
T1 construct: HAO was purified from ammonia oxidizing bacteria, and stored in a solution state or after drying; made in house; host or cells: Nitrosomonas europaea cells (native enzyme, not recombinant), purified by column chromatography
Test: Determination of 50% inhibitory concentration against HAO by HAO fluorescence measurement (resazurin method)
Type: biochemical
Conditions: n=4, nonlinear fitting
Experimental: The HAO fluorescence activity measurement was carried out to the compound library for screening by the resazurin method, and the inhibitory effect of these compounds was verified. The 40 kinds of compounds were dissolved in DMSO for molecular biology (available from Wako Pure Chemical Industries, Ltd.) or ultrapure water at a concentration of 100 mM, and further 2-fold dilution series was prepared with 16 series (100 mM, 50 mM, 25 mM, 12.5 mM, 6.25 mM, 3.13 mM, 1.56 mM, 0.78 mM, 0.39 mM, 0.19 mM, 97 μM, 48.8 μM, 24.4 μM, 12.2 μM, 6.1 μM and 3.1 μM) (final concentration becomes 1/200 concentration thereof). […] The plate was inserted into a fluorescence plate reader attached with a reagent injector (infinite M1000 PRO, manufactured by Tecan Co.), and 25 μL of 4 mM hydroxylamine stock solution for 4-fold dilution was added per well, so that an amount of the hydroxylamine to that of the resazurin was made 10-fold amount (molar ratio) in the reaction system. After 2 hours of incubation, fluorescence measurement (excitation wavelength 562 nm: wavelength width 20 nm, measurement wavelength 592 nm: wavelength width 20 nm) was carried out. Candidate compound A was selected as a inhibitor which decreased the fluorescence intensity to 10% or less compared with without-inhibitor condition. […]

T1 sequence (Q50925 25-570): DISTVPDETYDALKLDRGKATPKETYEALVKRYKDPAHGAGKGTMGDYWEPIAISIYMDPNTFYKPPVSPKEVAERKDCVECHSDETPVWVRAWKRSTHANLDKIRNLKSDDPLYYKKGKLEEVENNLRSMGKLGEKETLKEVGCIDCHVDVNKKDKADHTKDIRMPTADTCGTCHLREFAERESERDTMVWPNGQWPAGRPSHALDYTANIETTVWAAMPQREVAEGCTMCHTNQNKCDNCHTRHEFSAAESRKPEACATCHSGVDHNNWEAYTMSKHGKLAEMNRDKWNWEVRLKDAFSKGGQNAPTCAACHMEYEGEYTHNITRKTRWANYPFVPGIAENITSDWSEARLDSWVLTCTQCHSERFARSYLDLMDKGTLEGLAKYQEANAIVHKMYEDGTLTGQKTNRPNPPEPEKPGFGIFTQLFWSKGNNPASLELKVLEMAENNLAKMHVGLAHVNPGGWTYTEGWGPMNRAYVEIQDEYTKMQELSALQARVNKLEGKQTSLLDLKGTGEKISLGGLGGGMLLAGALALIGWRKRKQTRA

NNc1ccccc1 [phenylhydrazine]
IC50: 276 nM
